Like-named read-outs stand apart in the source and are kept apart here.
Columns and labels:
[1] = rabbit; Liu G S et al., 1991; cited from earlier work
Male Sprague-Dawley rats [2] = assay: Continuous CHA delivery through iPRECIO pumps at Ta 16° C. or 25° C., with 8-SPT injection; type: in vivo, rat; settings: for mean minimum Tb: continuous CHA via SQ minipump, equivalent to 1 mg/kg every 4 hr, 24 hr
Procedure: To determine if the effects of CHA on heart rate were due to direct effects of CHA on the heart or to the effects of tissue temperature, programmable minipumps were employed to deliver CHA continuously for 24 hr at an ambient temperature of 25° C. and 16° C. […] For these experiments a separate group of rats was instrumented with programmable iPRECIO® pumps (DSI, St. Paul, Minn.). CHA was dissolved in 25% (w/v) hydroxypropyl-β-cyclodextrin (CD) in sterile water and 8-SPT was dissolved in 0.9% saline. Pumps delivered the same mass of CHA as in the first experiment (6 mg/kg over a 24 hr period), however, in this case CHA was delivered at a constant rate of 30 μL/hr. Heart rate (HR) and hemoglobin saturation (sO2) was monitored using a pulse oximeter every 10 min for 1 hr following a single injection of 8-SPT (25 mg/kg, i.p.) or vehicle as indicated. As before, animals in both treatment and control groups were moved to an ambient temperature (Ta) of 16° C. or 25° C. the day before the experiment and remained at this Ta until return to a Ta of 20° C., 4 hr after the end of drug delivery. Drug and vehicle treatments were administered to all animals using a balanced cross-over design. At least 1 week separated CHA and vehicle (CD) treatment and 1 hr separated 8-SPT and vehicle (saline) injections. A pulse oximeter (Vet/Ox […], Model 72042A3 Sensor Devices Inc., Lancaster, Pa.) was used to monitor heart rate (HR) and sO2. Pulse oximetry was acquired via a sensor on the paw.

[3] = tested on: rats subjected to 8 min of asphyxial cardiac arrest; assay: Therapeutic hypothermia in rats subjected to 8 min asphyxial cardiac arrest; type: in vivo, rat
Procedure: Rats aged 68-75 days were subjected to 8 min of asphyxial cardiac arrest and animals that were resuscitated within 120 sec and met additional inclusion criteria 60 min after ROSC (Table 1) were randomly allocated to a therapeutic hypothermia (TH) or a normothermic control (NC) group using a computer-generated randomization schedule without knowledge of outcome. Treatment commenced 70 min after restoration of spontaneous circulation (ROSC).
Animals assigned to the TH group were moved to 16° C. and CHA and 8-SPT delivered as described above for Drug delivery via sequential IP injections. Animals assigned to the NC group were moved to a neonatal incubator set to 29° C. and vehicles (PB and saline) delivered as described above for the control group. At the end of 24 hr the rats were moved to and housed an ambient temperature of 20° C. for 7 days until they were euthanized for tissue collection. Body temperature was monitored prior to each injection throughout treatment and daily thereafter using sc IPTT-300 transponders (BioMedic Data Systems, Inc. Seaford, Del.).
ACA was induced as described by Dave et al., 2006. Animals were anesthetized with 5% isofluorane and a 30:70 mixture of O2 and N2O followed by endotracheal intubation and mechanical ventilation. The femoral vein and artery were cannulated for continuous blood pressure monitoring and blood gas analysis. ECG leads were attached to the limbs. Physiological variables, including but not limited to PaCO2, PaO2, and pH were maintained within normal limits by adjusting respiratory rate and volume. MABP and ECG were monitored continuously. Temporalis muscle and rectal temperatures were maintained at 36.5-37.5° C. by heating lamps and Omega (Stamford, Conn.) T-CSC32 temperature controllers. To induce cardiac arrest, vecuronium (1 mg/kg) was injected I.V. and apnea was induced by disconnecting the ventilator from the endotracheal tube. Resuscitation was initiated by reconnecting the ventilator, administering epinephrine (0.01 mg/kg, I.V.) and sodium bicarbonate (1 mg/kg, I.V.) mechanically ventilating with 100% O2 at a rate of 80 bpm and manual chest compressions until MABP reached 50 mm Hg and was maintained by a spontaneously beating heart for more than 10 sec. After 10 min of ROSC, ventilation was decreased to 60 bpm and O2 lowered to 30%. Naïve animals were subjected to similar surgical procedures except that the ventilator was not disconnected from the endotracheal tube.
Post-operative (post-op) rats subjected to 6 min and 8 min CA and not assigned to hypothermia experiments were placed in a neonatal incubator overnight with only water provided (0.9% saline, I.P. based off […] body weight was injected at the end of surgery to prevent dehydration). After 8-16 hr, animals were fed, weighed, cleaned, and had neurological deficit scores (NDS) analyzed daily for 7 days beginning 2 hr post ROSC. Rats were fed a 50:50 mix of rodent chow and sugar mixed with water to create a soup, which was placed into small petri dishes to allow animals to self-feed. Animals that were unable to feed themselves were assisted via spoon-feeding. Spoon-feeding involved using a gavage needle and a 3 cc syringe to slowly and carefully inject the liquid soup material into the rat's mouth allowing their “swallow-reflex” to determine how much food was given.
Behavioral Neurological Deficit Scores (NDS) were taken daily for 7 days after asphyxial cardiac arrest to assess injury. The total NDS consists of five components: consciousness and respiration, cranial nerve function, motor function, sensory function, and coordination (leg/tail movement, cleaning, depth perception, and righting reflex) as previously described in Katz et al., 1995). The NDS range is a scale between 0 (normal function) to 100 (brain dead). […]

[4] = tested on: arctic ground squirrel (AGS); settings: CHA i.p. or into the lateral ventricle (icv), cited from earlier work
[5] = stated as approximated by the 4 hr injection interval; cited from earlier work
[6] = tested on: arctic ground squirrel (AGS); assay: CHA-induced torpor and hypothermic response in arctic ground squirrel; type: in vivo; settings: CHA 0.1 mg/kg i.p.; trough vs peak in euthermic Tb,sc; p<0.05, n=6; FIG. 2B
Excerpt: Adenosine is a neuroprotective by-product of cellular metabolism that accumulates and is released from the brain during traumatic events (Dunwiddie and Masino, 2001). Under nonpathologic conditions, adenosine functions as a bioenergetic network regulator (Boison et al., 2011), and as a neuromodulator with key roles in sleep, thermoregulation and hibernation (Drew and Jinka, 2012) via a family of G protein-coupled receptors (GPCR). Torpor onset in the arctic ground squirrel (AGS) is regulated within the CNS by A1AR signaling and depends on a seasonal change in sensitivity to agonists (Jinka et al., 2011). […] Moreover, CHA-induced torpor is similar to spontaneous torpor with regard to the magnitude and temporal profile of metabolic suppression and Tb decline. A seasonally regulated decrease in Tb during rest in euthermic (non-hibernating) AGS predicts onset of torpor and an increased hypothermic response to CHA. Thus, Tb in animals at rest is a biomarker of enhanced sensitivity to A1AR signaling (FIG. 2). This relationship between Tb and sensitivity to CHA is observed in rats as well as in AGS as disclosed herein.
Spontaneous torpor is indicated by abrupt decreases in Tb,sc below about 30° C.

[7] = tested on: dietary restricted (DR) rats; assay: Induction of hypothermia by intermittent CHA and 8-SPT in ad libitum fed and dietary restricted rats; type: in vivo, rat
Procedure: First, shivering is alleviated through stimulation of central A1AR. Second, the Tb minimum and rate of cooling following stimulation of A1AR in the CNS can be controlled through manipulation of ambient temperature without external or internal cooling. These principles were used to develop methods for inducing hypothermia in dietary restricted (DR) rats (FIG. 3B). In FIG. 3, the magnitude and rate of cooling was controlled by adjusting ambient temperature (i.e., 16° C.) and regulating sensitivity to CHA through DR (every other day feeding, see FIG. 3B). Peripheral side effects were minimized by co-administration of 8-SPT (2.5 mg/kg i.p.) 15 min prior to CHA (0.5 mg/kg, i.p.). […].

Male Sprague-Dawley rats [8] = assay: Sustained hypothermia in conscious rats, drug delivery via sequential i.p. injections; type: in vivo
[9] = 8-SPT 25 mg/kg i.p. in CHA treated animals, Ta 25° C.

SMILES: Cn1c(=O)c2[nH]c(-c3ccc(S(=O)(=O)O)cc3)nc2n(C)c1=O [8-SPT, 8-p-sulfophenyltheophylline]
- half-life [1]: 0.75 h
- influence on Tb (Male Sprague-Dawley rats [2]; 8-SPT 25 mg/kg i.p. in CHA treated animals, Ta 16° C.): no influence on Tb
- heart rate (Male Sprague-Dawley rats [2]; [9]): small, but significant increase
- influence on Tb (Male Sprague-Dawley rats [2]; [9]): no influence on Tb
- increase in heart rate (Male Sprague-Dawley rats [2]; 8-SPT 25 mg/kg i.p. in animals treated with continuous CHA, Ta 16° C.): 2 fold
- heart rate in control animals (Male Sprague-Dawley rats [2]; 8-SPT in control (CD treated) animals, Ta 16° C., saline vehicle did the same): increased heart rate
- heart rate or Tb in control animals (Male Sprague-Dawley rats [2]; 8-SPT in control (CD treated) animals, Ta 25° C.): no effect on heart rate or Tb
- time for effects of 8-SPT to subside (Male Sprague-Dawley rats [2]; after 8-SPT 25 mg/kg i.p., Ta 16° C.): ≤ 60 min

SMILES: OC[C@H]1O[C@@H](n2cnc3c(NC4CCCCC4)ncnc32)[C@H](O)[C@@H]1O [CHA, N^6-cyclohexyladenosine]
- number of healthy neurons per mm of CA1 (mean±SEM) ([3]; TH group n=3, 8 days after 8 min asphyxial CA, naïve 180.8±12.3, normothermic control 47.8): 135.5±4.6
- survival to 8 days ([3]; TH group, n=3, 1 of 3 survived in normothermic control group): 3 rats
- individual Tb minima ([3]; TH group, n=3): 29.7±0.3 °C
- time to Tb of 31.0 to 31.6° C. after CHA injection ([3]; TH group, n=3): ≤ 3 h
- time to rewarm without intervention after transfer to Ta of 20° C. ([3]; TH group, transfer 4 hr after last CHA injection): ≤ 5 h
- time at which Tb reached a minimum after ROSC ([3]; cooling initiated 70 min post ROSC): 12 h
- post-operative recovery ([3]; hypothermia group): recovered without need for post-op care
- torpor induction in summer ([4]; summer): not in summer
- torpor induction in winter ([4]; winter): induces torpor
- half-life [5]: ~4 h
- sO2 (Male Sprague-Dawley rats [2]; continuous CHA at Ta 16° C. and 25° C.): no effect
- heart rate (Male Sprague-Dawley rats [2]; continuous CHA at Ta 16° C. and 25° C. vs CD vehicle, p<0.01): decreased
- mean minimum Tb (Male Sprague-Dawley rats [2]; Ta 16° C.): 29.3±0.3 °C
- mean minimum Tb (Male Sprague-Dawley rats [2]; Ta 25° C.): 35.6±0.12 °C
- maximal response to a low (non-torpor inducing) dose [6]: greater when tested during a trough than when tested during a peak
- magnitude of cooling at a given dose ([7]; dietary restriction (every other day feeding) vs ad libitum, CHA 0.5 mg/kg with 8-SPT): enhanced following DR
- Tb in conscious rats ([7]; repeated co-administration: 8-SPT 2.5 mg/kg i.p. 15 min prior to CHA 0.5 mg/kg i.p., 4 hr intervals, Ta 16° C.): immediate decrease in Tb
- Tb on repeated injection (Male Sprague-Dawley rats [8]; CHA 1.0 mg/kg i.p. at 4 hr intervals, 6 injections, 8-SPT 15 min prior, Ta 16° C.): steady minimum in Tb after the fourth injection
- Tb decreased to (Male Sprague-Dawley rats [8]; CHA 1.0 mg/kg i.p., 8-SPT 25 mg/kg i.p. 15 min prior, Ta 16° C., FIG. 4A): 33 °C
- time to decrease of Tb to 33° C. (Male Sprague-Dawley rats [8]; CHA 1.0 mg/kg i.p., 8-SPT 15 min prior, Ta 16° C.): ≤ 1 h
- heart rate at 24 hr (Male Sprague-Dawley rats [8]; CHA-treated rats, 4 hr after last 8-SPT and CHA injection, FIG. 4C): slight, but statistically significant bradycardia
- time to rewarm after moving to Ta of 20° C. (Male Sprague-Dawley rats [8]; after 6 injections of CHA and 8-SPT, no other means of rewarming): ≤ 3.5 h
- adverse events after rewarming (Male Sprague-Dawley rats [8]; after 24 hr CHA and 8-SPT at Ta 16° C.): without evidence of significant adverse events
- heart rate 5.5 hr after the last CHA injection (Male Sprague-Dawley rats [8]; after rewarming, FIG. 4C): remained significantly elevated
- neurological deficit scores (NDS) (Male Sprague-Dawley rats [8]; during hypothermia, FIG. 4B): increased

Source: US10092591B2, “Methods and compositions for the treatment of ischemic injury to tissue using therapeutic hypothermia” (University of Alaska Fairbanks, priority 2014, dated 2018)
